Assay results taken from a melting point compilation (Tetko et al.; mined from patent text by program, amines drawn as free bases though some values may be those of a salt).

SMILES	melting point [°C]
COc1cc2c(c(OC)c1)C1CCC3(C)C(O)CCC3C1CC2 (centres undefined)	53 to 55
CC(=O)OC(C)c1ccc(CCOc2ccc(CC3SC(=O)NC3=O)cc2)nc1 (centres undefined)	143 to 144
CC(C)NNC(=O)OCc1ccccc1	61 to 62
CCOc1ccc(-c2nc(OC)ccc2N2CCC(=O)N(c3ccc(OC)cc3)CC2)cc1C	136 to 138
CCCCC(=O)c1c(CSc2nccn2C)nc2cc(OC)c(OC)cc2c1-c1ccc(OC)c(OC)c1	125 to 127
O=c1oc2c(c(O)c1C(C1CC1)C1CC1)CCCCCC2Cc1ccccc1 (centres undefined)	94 to 97
CCOC(=O)CCNC(=O)Nc1ccncc1	95
CCOC(=O)c1cn(Cc2ccccc2OC)c2sc(-c3ccc(OC)cc3)c(CBr)c2c1=O	200 to 201
OCCCCCCCCCCCCCCCCCCCCCCC(F)(F)C(F)(F)C(F)(F)C(F)(F)F	69 to 71
CCOC(=O)c1ccc(Nc2ccc([N+](=O)[O-])cc2[N+](=O)[O-])cc1	99 to 102
CCOC(=O)C1=C(COCc2nc(C(=O)OCC)cs2)NC(C)=C(C(=O)OC)C1c1ccccc1Cl (centres undefined)	111 to 113
COc1ccc(C2=C(c3ccc(S(C)(=O)=O)cc3)CCC2)cc1Cl	118 to 120
CCN1c2ncccc2C(=O)Nc2c(C)cc(NCCCO)nc21	222 to 224
COC(=O)c1cc(C(O)(C(F)(F)F)C(F)(F)F)ccc1NS(C)(=O)=O	147 to 148
COc1ccc2c(c1)C(C(=O)Nc1ccc(C(C)C)cc1)CCC2 (centres undefined)	168 to 169
CN1CC(=O)N2[C@H](c3ccc4occc4c3)c3[nH]c4ccccc4c3C[C@@H]2C1=O	291 to 293
CC(CCC(=O)O)CC(C)CC(C)C(=O)C=C(O)C(C)CC(C)CC=CC(C)C(O)C(C)C(O)CC1CCC(C)(C2CCC(C)(C(C)O)O2)O1 (centres undefined)	203
CCOC(=O)c1ccc(CNC(=O)CCl)cc1O	120 to 121
CCCCCCCOC(=S)SC(Cn1ccnc1)c1ccc(Cl)cc1Cl (centres undefined)	107 to 113
CC(C)C[C@H](NC(=O)CCc1ccccc1)C(=O)O	129 to 130
O=C(NC(c1ccccc1)c1cc2ccncc2[nH]1)c1cccnc1 (centres undefined)	178 to 188
COc1ccc(C(O)C(=O)c2ccccc2)cc1F (centres undefined)	127 to 130
CC(n1ccnc1)C1(c2ccc(Cl)cc2Cl)SCCS1 (centres undefined)	142
NC1=NS(=O)N=C1NCCCOc1cc(CN2CCCCC2)ccn1 (centres undefined)	154 to 158
COc1ccc(C(=O)Cc2c(Cl)cncc2Cl)c2c1OCC2CC(=O)OCc1ccccc1 (centres undefined)	120 to 122

SMILES	melting point [°C]
CCOc1c(C(=O)c2cccs2)cnc2[nH]ncc12	202 to 205
Nc1c(F)cc(-c2ccccc2)cc1Cl	105 to 107
Fc1cccc(Cl)c1COc1cccnc1NC(=S)Nc1ccc(Cl)cc1	162 to 164
COc1cccc(Oc2c(NS(=O)(=O)c3ccc(C(C)(C)C)cc3)ncnc2SCCOc2ncccn2)c1	168
COc1ccccc1OCC(O)CN1CCC(N2CCCNC2=O)CC1 (centres undefined)	130 to 133
O=C(O)/C=C/c1ccc(OCc2cccnc2)cc1	228 to 230
O=C(NCc1ccccc1)c1ccnc(N2CCN(Cc3ccncc3)C2=O)c1	154 to 156
COc1ccc(C2CCN(c3c(C)c(C)c4c(c3C)C(c3ccccc3)C(C)(C)O4)CC2)cc1OC (centres undefined)	118 to 120
O=C1N(Cc2cc(-c3ccc(Cl)cc3)oc2C(F)(F)F)c2ccccc2C12COc1cc3c(cc12)OCO3 (centres undefined)	114 to 116
CCCCCCC(C(C)O)n1c(C)nc(C(N)=O)c1N (centres undefined)	142 to 144
COC(=O)C=CC(=S)c1ccc(-c2ccccc2)cc1	85 to 86.5
O=C(NCc1ccc(F)cc1)c1ccnc(N2CCN(C(F)(F)c3ccc(C(F)F)cc3)C2=O)c1	173 to 175
Cc1cn(N=Cc2cccnc2)c(=O)n1C	186 to 187
CC(=O)OCc1csc(Nc2ccc(Oc3ccccc3)cn2)n1	158 to 160
Cc1cc(Cl)c(C)c(S(=O)(=O)Nc2onc(C)c2Br)c1	148 to 150
CC(COc1ccc(-n2cncn2)cc1)(NS(=O)(=O)Cc1ccccc1)C(=O)O (centres undefined)	148 to 151
COC(=O)c1ccc(CC(C)NCC(O)c2ccc(O)c(CO)c2)cc1C (centres undefined)	82 to 85
CCCc1cc2cc(O)c(F)cc2c(Oc2ccc(/C=C/C(=O)O)cc2)c1-c1ccccc1	118 to 120
O=S1(=O)c2cccc3cccc(c23)N1CCCN1CC=C(c2ccc(O)cc2)CC1	198
CC(C)C[C@@H](CC=O)NC(=O)[C@H](Cc1c[nH]cn1)NC(=O)[C@H](Cc1ccccc1)NC(=O)OCc1ccccc1	173 to 175
CCN(CC)c1ccc(N(c2ccc(N(CC)CC)cc2)C2(c3ccc(N(C)C)cc3C)OC(=O)c3ccccc32)cc1 (centres undefined)	59 to 72
N#CCCC(CCC(=O)O)(c1ccccc1)c1ccccc1	119 to 120
CC(=O)N(C)N(C(=O)OC(C)(C)C)c1ccc(CO)cc1	122 to 123
CC(=O)Nc1ncc(Cc2ccc(Cl)cc2)c(NC(C)=O)n1	147
CC1(C)CCC(C)(C)c2cc(-c3cc(-c4ccc(C(=O)O)cc4)ccc3O)ccc21	240 to 241

SMILES	melting point [°C]
Oc1nc2cc(F)ccc2n2cnnc12	> 300
CCCc1c(Oc2ccc(C(=O)O)cc2C(=O)O)ccc(C(C)=O)c1O	280 to 283
O=c1c2c[nH]c3c(c-2nn1-c1ccc(Cl)cc1)CSC3	> 330
O=C(Cc1ccsc1)N[C@H]1C[C@H](C(=O)O)Nc2cc(Cl)cc(Cl)c21 (relative stereo)	198 to 200
C=C(c1ccccc1)c1ccc(N)c(N)c1	109 to 110
CC(C)(C)OC(=O)N1CCN(CCCC2(C)Cn3cc([N+](=O)[O-])nc3O2)CC1 (centres undefined)	166 to 167
COc1cc(Nc2nccc(-c3nccs3)n2)cc(OC)c1OC	159
Nc1cc(-c2cccnc2)ccc1S(N)(=O)=O	240 to 243
CCCc1[nH]c(C(=O)OCC)c(CC)c1C	58 to 59.5
N#Cc1c[nH]c(-c2ccccc2F)c1	158 to 160
OCc1cc(Cc2ccccc2)cs1	33 to 34
CC(C)NC(=O)NC/C=C\COc1cc(CN2CCCCC2)ccn1	90 to 92
Cn1c(=O)oc2cc([N+](=O)[O-])cc(F)c21	118 to 119
OC1CCc2cc(Cl)c(Cl)cc2C1 (centres undefined)	103 to 105
CC12CCC(CC1=C=C1C=CC(Nc3nc(Cl)nc(Cl)n3)=CC1)C2(C)C (centres undefined)	238
CCCNc1nc(N)nc(-c2ccccc2)c1-c1ccc(=O)n(C(C)C)n1	209 to 212
C=C(C)c1cc(O)cc2nc(-c3ccc(O)cc3)oc12	225 to 228
CCOCCOc1ccc(OCC(O)CNCCNC(=O)N2CCOCC2)cc1 (centres undefined)	75 to 77
CC1=CC(=C(C#N)C#N)C=C(C)N1CCOCCCl	148 to 149
C=CCN(CC=C)Cc1nc(-c2ncn3c2[C@@H]2CCN2C(=O)c2cc(F)ccc2-3)no1	100 to 105
CC(C)COC(=O)Nc1nc(N2CC=CCC2)nc2nc(=O)on12	210 to 215
O=CC1CC1(c1ccccc1)c1ccccc1 (centres undefined)	71 to 73
O=C(Cl)N1CCCCCCCCCCCNC1=O	65 to 67
O=C1CCOc2ccc(OCc3ccccc3)cc21	107 to 108
CN(C)c1nc(C(=O)NCCO[N+](=O)[O-])cs1	94 to 95

SMILES	melting point [°C]
FC(F)(F)CNC(=S)Nc1cccc(COC(=S)NCC(F)(F)F)n1	173 to 175
C=COC(=O)C1=Cc2cc(Cl)cc(C=C)c2OC1C(F)(F)F (centres undefined)	75.9 to 77.2
N#CCCNNC(=O)c1ccc(OCc2ccccc2)cc1	136
O=C(C=Cc1ccc([N+](=O)[O-])cc1)N1CCc2c([nH]c3ccccc23)C1c1ccc2c(c1)OCO2 (centres undefined)	158
CCCCCCCCCn1ccc(C#N)cc1=O	46 to 48
COC(=O)C(Cc1ccc(OC)c(C(=O)NCc2ccc(C(F)(F)F)cc2)c1)SC (centres undefined)	127 to 128
O=c1[nH]c2cc(F)c([N+](=O)[O-])c(Br)c2[nH]c1=O	320 to 325
CC(C)Cc1ccc(C(CC(=O)O)C(=O)O)s1 (centres undefined)	106 to 108
COc1ccc(-c2cc(=Nc3c(C)cc(C)cc3C)n(C)c(N3CCN(C(=O)c4ccc(F)cc4)CC3)n2)cc1OC	117 to 121
O=C(Nc1ccccc1F)c1ccc(CN2C(=O)C3(COc4cc5c(cc43)OCCO5)c3ccccc32)cc1 (centres undefined)	245 to 251
O[C@@H](CNC1CN(C(c2ccccc2)c2ccccc2)C1)COc1ccc(OCc2ccccc2)cc1	109 to 110
CN(C)CCSc1cc(NC(=O)OC(C)(C)C)c(NC(=O)CC(=O)c2cccc(C#N)c2)cc1C#Cc1ccccc1	88
CCn1c(=O)c2c(nc(/C=C/c3ccc(O)c(C)c3C)n2C)n(CC)c1=O	240 to 242
NC(=S)N1CCN(c2nc3cccccc-3n2)CC1	245 to 247
Cc1ccc(S(=O)(=O)OC2=C(Br)C(=O)c3ccc4c(c3C2=O)C=CC(C)(C)O4)cc1	182 to 184
O=C1CCC(N2C(=O)c3cccc(CNC(=O)Nc4ccc5ccccc5c4)c3C2=O)C(=O)N1 (centres undefined)	201 to 203
O=C(NCCc1ccccc1)c1c(Cl)ccc2nc(N3CCC(C(=O)O)CC3)ccc12	260 to 262
Cc1cc(C)nc(S(=O)(=O)Nc2c(C)cccc2Cl)n1	215 to 219
COC(=O)Cc1cc(Br)c(Sc2ccc(O)c(Cc3ccc(Cl)nn3)c2)c(Br)c1	133 to 135
CC(=O)OC1CSC(Oc2cccc(C)n2)C(OC(C)=O)C1OC(C)=O (centres undefined)	106
Cc1oc2c(NC(=O)c3c(Cl)ccc(Cl)c3C(=O)O)cccc2c1C	186 to 188
CCNc1nc(Cl)nc2nc[nH]c12	237 to 239
COC(=O)Cc1ccccc1S(=O)(=O)NC(=O)Nc1nc(Cl)cc(Cl)n1	115 to 118
N#CC(C(=O)c1ccc(NS(=O)(=O)C(F)(F)F)cc1)=C1CCCCN1	197
